Measurements reported in patent US6845328B2, “Screening methods using the crystal structure of ribosomal protein L11/GTPase activating region rRNA complex” (University of Utah Research Foundation, priority 1999, dated 2005).
“Also recorded” adds a separate entry of the source.

Key:
[1] = test system: E. coli S30 lysate and luciferase mRNA; conditions: bioluminescence; cited from earlier work
70S ribosomes / EF-G = 70S ribosomes / EF-G (Escherichia coli, UniProt P0A7J7); conditions: cited from earlier work
Sequence of 70S ribosomes / EF-G (P0A7J7 2-142): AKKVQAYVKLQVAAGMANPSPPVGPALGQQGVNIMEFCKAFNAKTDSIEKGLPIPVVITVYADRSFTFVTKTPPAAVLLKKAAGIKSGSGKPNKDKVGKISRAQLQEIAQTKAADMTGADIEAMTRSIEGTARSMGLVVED

[2] = biological target: T1, Thermotoga maritima ribosomes (Thermotoga maritima, UniProt P29395); conditions: less than B. stearothermophilus ribosomes; cited from earlier work
T1 sequence (P29395 2-141 limits assumed): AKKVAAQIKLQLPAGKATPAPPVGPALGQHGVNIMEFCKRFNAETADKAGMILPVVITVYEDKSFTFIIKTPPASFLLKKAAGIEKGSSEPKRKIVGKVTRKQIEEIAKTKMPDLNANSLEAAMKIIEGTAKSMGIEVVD

GAR RNA = conditions: RNA without L11; read-out: Kd, affinity for the RNA alone; cited from earlier work
intact ribosomes = intact ribosomes (Escherichia coli, UniProt P0A7J7); conditions: higher than for 23S RNA; cited from earlier work
Sequence of intact ribosomes (P0A7J7 2-142): as the sequence (P0A7J7 2-142) above

50S subunits = 50S subunits (Escherichia coli, UniProt P0A7J7); conditions: cited from earlier work
Sequence of 50S subunits (P0A7J7 2-142): as the sequence (P0A7J7 2-142) above

23S RNA = conditions: equilibrium dialysis; read-out: dissociation constant of thiostrepton/23S RNA; cited from earlier work
GTPase centre-59 mer = assay: Filter binding assay of thiostrepton to GTPase centre RNA (96-well, displacement format); conditions: read-out: dissociation constant for the thiostrepton/GTPase centre-59 mer complex
Procedure: Thiostrepton binding to GTPase centre RNA can be monitored by a filter binding assays (Uchiumi et al., 1995, Biol. Chem., 270(50):29889-93; Draper et al., 1988, Methods Enzymol., 164:203-20). The filter binding assay can be transformed to a 96-well format using Millipore MHAB (mixed cellulose ester) 96-well plates. The dissociation constant for the thiostrepton/GTPase centre-59 mer complex of 1 uM is in good accordance with the literature. Additionally, filter binding can show the cooperativity in binding of thiostrepton and L11. Thermotoga maritima ribosomes are known to be sensitive to thiostrepton (Londei et al., 1988, J. Bacteriol., 170(9):4353-60), although 100-fold less than B. stearothermophilus ribosomes. The affinity of thiostrepton for Thermotoga GTPase center RNA in vitro has not yet been determined.
^35S- or ^32P-labelled RNA is prepared by transcription in the presence of radiolabelled nucleotides. The labelled RNAs are purified by gel electrophoresis or chromatography by reverse-phase. […] Association constants between RNA and thiostrepton in the presence or absence of inhbitor are determined in 100 ul reactions containing 10 mM Tris-HCl (pH 7.4), 3 mM MgCl2, 175 mM NH4Cl and 5% v/v DMSO. […]
The relative amounts of RNA retained in the presence and absence of inhibitor can be determined by quantitation of the radioactivity on each filter. […]

isolated L11 = isolated L11 (Escherichia coli, UniProt P0A7J7); conditions: L11 without RNA; cited from earlier work
Sequence of isolated L11 (P0A7J7 whole entry): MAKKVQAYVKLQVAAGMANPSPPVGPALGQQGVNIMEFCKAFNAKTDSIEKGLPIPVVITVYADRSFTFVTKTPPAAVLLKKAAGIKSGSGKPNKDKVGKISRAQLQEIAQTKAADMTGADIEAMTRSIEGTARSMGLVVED

Row | SMILES | yield of active luciferase compared to the control [1] | effect on hydrolysis of GTP by EF-G (70S ribosomes / EF-G) | sensitivity of ribosomes to thiostrepton relative to B. stearothermophilus ribosomes [2] [fold] | Kd (GAR RNA) [nM] | affinity to intact ribosomes relative to 23S RNA (intact ribosomes) | binding to 50S subunits (50S subunits) | Kd (23S RNA) [nM] | Kd (GTPase centre-59 mer) [nM] | binding to isolated L11 (isolated L11)
1 | O=C(N[C@H](CO)[C@H](O)c1ccc([N+](=O)[O-])cc1)C(Cl)Cl [chloramphenicol] | decrease in yield of active luciferase | – | – | – | – | – | – | – | –
2 | C/C=C(\NC(=O)c1csc(-c2csc(-c3ccc4c(n3)-c3csc(n3)[C@H]([C@@H](C)O)NC(=O)c3csc(n3)[C@H](C(C)C)NC(=O)c3csc(n3)/C(=C/C)NC(=O)[C@H]([C@@H](C)O)NC(=O)c3csc-4n3)n2)n1)C(=O)NC[C@@H](C)O [micrococcin] | – | stimulates GTP hydrolysis by EF-G | – | – | – | – | – | – | –
3 | C=C(NC(=O)C(=C)NC(=O)c1csc(C2=N[C@@H]3c4csc(n4)[C@H]4NC(=O)c5csc(n5)[C@H]([C@](C)(O)[C@@H](C)O)NC(=O)[C@H]5CSC(=N5)/C(=C/C)NC(=O)[C@H]([C@@H](C)O)NC(=O)c5csc(n5)[C@]3(CC2)NC(=O)[C@H](C)NC(=O)C(=C)NC(=O)[C@H](C)NC(=O)[C@H]([C@@H](C)CC)N[C@@H]2C=Cc3c([C@H](C)O)cc(nc3[C@H]2O)C(=O)O[C@@H]4C)n1)C(N)=O [thiostrepton] | decrease in yield of active luciferase | inhibits elongation factor G (EF-G)-dependent GTP hydrolysis; also recorded: inhibits hydrolysis of GTP by EF-G | 100 | 400 | 100-1000 fold | binds essentially irreversibly to 50S subunits | 230 | 1000 | does not bind isolated L11
